Consider two molecules from ChEMBL document CHEMBL6071145, “A novel theranostic strategy for myocardial infarction through neutralization of endogenous SO2 using an endoplasmic reticulum-targeted fluorescent probe” (Eur J Med Chem, 2024).

The source made the active and inactive calls. The rule behind the calls is not given here.

Series [1] in a line: Drug uptake in male C57BL mouse model assessed as increase in fluorescence signal in apex cordis at 25 mg/kg. In kind it is ADME, organism-based, Apex of heart. The note with it: in vivo.
Series [2] has as its system H9c2. Put plainly: Cytotoxicity against rat H9c2 cells at 80 uM incubated for 48 hrs by CCK-8 assay. The following applies: h9c2, 48 h. In kind it is toxicity, cell-based.
In series [3] the test system is H9c2. Put plainly: Cardioprotective activity against H2O2 induced rat H9c2 cells preincubated with compound for 1 hr followed by H2O2 addition for 0.5 hr by confocal microscopic analysis. Type of series: functional, cell-based. The note with it: time 90.0 min.
The species named for series [4] is Mus musculus. Put plainly: Cardioprotective activity against myocardial infarction male C57BL mouse assessed as increase in BCL-2 expression in ischemic region by Western blot analysis. Type of series: functional, organism-based. On the technique in general: A western blot detects proteins with antibodies after separation by electrophoresis.
Series [5] deals with H9c2. Put plainly: Cardioprotective activity against H2O2 induced rat H9c2 cells assessed as decrease in red fluorescence at 5 to 50 uM preincubated with compound for 1 hr followed by H2O2 addition for 0.5 hr by confocal microscopic analysis. In kind it is functional, cell-based. The note with it: dose 5-50 µM, time 90.0 min.
Series [6] can be described thus: Drug uptake in human A549 cells assessed as decrease in red channel at 5 to 100 uM pretreated with NaHSO3 for 1 hr followed by SO2 for 1 hr by confocal microscopic analysis. In kind it is ADME, cell-based. The following applies: a549, 2 h, dose 5-100 µM.
Series [7] relates to H9c2. Briefly: Cardioprotective activity against H2O2 induced rat H9c2 cells assessed as production of BCL-2 protein at 0 to 50 uM preincubated with compound for 1 hr followed by H2O2 addition for 0.5 hr by Western blot analysis. In kind it is functional, cell-based. The following applies: dose 0-50 µM, time 90.0 min.
Series [8] is filed under the species Mus musculus. Briefly: Cardioprotective activity against myocardial infarction male C57BL mouse assessed as decrease in tissue structure by HE staining based analysis. In kind it is functional, organism-based.
The species named for series [9] is Mus musculus. Put plainly: Cardioprotective activity against myocardial infarction male C57BL mouse assessed as […] in apoptosis by TUNEL staining based analysis. In kind it is functional, organism-based.
Series [10] is described as follows: Drug localization in golgi body of human A549 cells assessed as colocalization incubated for 20 mins by Golgi-Tracker Green staining based analysis. Type of series: ADME, subcellular. The note with it: a549, 20 min.
The subject of series [11] is H9c2. Briefly: Cardioprotective activity against H2O2 induced rat H9C2 cells assessed as increase in green fluorescence at 5 to 50 uM preincubated with compound for 1 hr followed by H2O2 addition for 0.5 hr by confocal microscopic analysis. The following applies: dose 5-50 µM, time 90.0 min. Type of series: functional, cell-based.
The species named for series [12] is Mus musculus. Put plainly: Cardioprotective activity against myocardial infarction male C57BL mouse assessed as decrease in cardiac fibrosis by Masson staining based analysis. Type of series: functional, organism-based.
Series [13] can be described thus: Drug localization in endoplasmic reticulum of human A549 cells assessed as colocalization incubated for 20 mins by ER-Tracker Green staining based anlaysis. The following applies: a549, 20 min. In kind it is ADME, subcellular.
For a further series, the system named is A549. Put plainly: Cytotoxicity against human A549 cells assessed as reduction in cell viability at 100 uM incubated for 48 hrs by CCK-8 assay. In kind it is functional, cell-based.
The next series deals with L02. Briefly: Cytotoxicity against human LO2 cells assessed as reduction in cell viability at 100 uM incubated for 48 hrs by CCK-8 assay. The note with it: l02, 48 h. Type of series: toxicity, cell-based. On the technique in general: Tetrazolium dyes change colour on reduction, which living cells bring about.
Series [14] is filed under the species Mus musculus. Put plainly: Cardioprotective activity against myocardial infarction male C57BL mouse assessed as increase in BCL-2 expression in peri-ischemic region by Western blot analysis. Type of series: functional, organism-based.
The nature of series [15]: Drug uptake in human A549 cells assessed as increase in fluorescence ratio at 5 uM pretreated with NaHSO3 for 1 hr followed by SO2 for 1 hr by confocal microscopic analysis. The note with it: a549, 2 h. In kind it is ADME, cell-based.
Series [16] is described as follows: Drug uptake in human A549 cells assessed as decrease in red channel at 5 uM treated with SO2 incubated for 1 hr by confocal microscopic analysis. Type of series: ADME, cell-based. The note with it: a549, 1 h.
The nature of series [17]: Drug uptake in human A549 cells assessed as increase in fluorescence ratio at 5 uM treated with SO2 for 1 hr by confocal microscopic analysis. In kind it is ADME, cell-based. The note with it: a549, 1 h.
Series [18] in a line: Drug localization in nucleus of human A549 cells assessed as colocalization incubated for 20 mins by […] staining based analysis. In kind it is ADME, subcellular. The following applies: a549, 20 min.
A short description of series [19]: Drug uptake in human A549 cells assessed as increase in green channel at 5 uM treated with SO2 for 1 hr by confocal microscopic analysis. In kind it is ADME, cell-based. The note with it: a549, 1 h.
Series [20] can be described thus: Drug uptake in human A549 cells assessed as increase in green channel at 5 to 100 uM pretreated with NaHSO3 for 1 hr followed by SO2 for 1 hr by confocal microscopic analysis. In kind it is ADME, cell-based. The following applies: a549, 2 h, dose 5-100 µM.
A short description of series [21]: Drug localization in lysosomes of human A549 cells assessed as colocalization incubated for 20 mins by lysoTracker Green DND-26 staining based analysis. Type of series: ADME, subcellular, Lysosome. The following applies: a549, 20 min.
The nature of series [22]: Photostability of compound in human A549 cells at 5 uM measured within 3 min in the presence of light-irradition. The following applies: a549, 0.05 h. In kind it is ADME, cell-based.
A short description of series [23]: Drug localization in mitochondria of human A549 cells assessed as colocalization incubated for 20 mins by MitoTracker Green staining based analysis. In kind it is ADME. The following applies: a549, 20 min.

Take `O=S(=O)([O-])CCCC[n+]1c(CC(c2ccc(N(c3ccccc3)c3ccccc3)cc2)S(=O)(=O)[O-])sc2ccccc21.[Na+]` (stereo unspecified): in series [1], the Drug uptake entry is “Active”. Also, the Activity result in the series with H9c2 [2] is on record as “Non-Toxic”. For the same molecule, the result with H9c2 [3] was inactive.

With `O=S(=O)([O-])CCCC[n+]1c(/C=C/c2ccc(N(c3ccccc3)c3ccccc3)cc2)sc2ccccc21`, the outcome in the series listed under Mus musculus [4], in the series with H9c2 [5], with H9c2 [7], in the series filed under Mus musculus [8], in the series filed under Mus musculus [9] and in the series with H9c2 [11] was Active. For the same molecule, the result in the series listed under Mus musculus [12], with A549 and in the series listed under Mus musculus [14] was Active. Also, the Drug uptake entry in series [6] is “Active”; in [10], “Not Active”; in series [13], “Active”; in series [15], “Active”; in [16] it was “Active”; in [17] it was “Active”. In addition, the Drug uptake entry is “Not Active” in [18]; “Active” in series [19]; “Active” in series [20]; “Not Active” in series [21]; “Not Active” in series [23]. Further, the Activity result in the series with L02 and with H9c2 [2] was “Non-Toxic” in each case. Further, the Stability entry in [22] is given as “Stable”.
